# “And” between values parts separate entries of the source, which are not always exact repeats. Equal values may be shown once.
# What was measured:
# [1] = Spectrofluorimetry studies: excitation and emission spectra and ratiometric response to metal ion binding; type: physicochemical; settings: for λabs (UV), (nm): indicator 1-2 μM in 30 mM MOPS, 100 mM KCl buffer; for λemiss (nm) / λexcit (nm): position of maxima for two ratiometric peaks, 30 mM MOPS, 100 mM KCl, 0 to 200 nM free calcium ion
# Procedure: (§1) The excitation and emission spectra of solutions of various ion indicators (concentration 1-2 μM) were recorded in 30 mM MOPS and 100 mM KCl buffers containing 0 to 200 nM free calcium ion. The binding constant values were calculated based on 8-10 data points taken in buffers covering the concentration range appropriate for the Kd value. Spectral curves for derivatives of Compound 7 (with different R substitutents) were recorded using a standard spectrofluorimeter.
# FIGS. 1-3 show excitation and emission spectra for several of the tested compounds. […]
# [2] = Spectrofluorimetry studies: calcium binding constant (Kd) of ion indicators; settings: 30 mM MOPS, 100 mM KCl buffers; calculated from 8-10 data points; read-out: Kd(Ca^2+)
# Procedure: as §1
# [3] = test system: Jurkat T-cell leukemia cultured cells; assay: Flow cytometry studies: intracellular calcium response of dye-loaded cells after stimulant; type: cell-based; settings: Jurkat cells loaded with 4 μM cell-permeant compound, 355 nm excitation
# Procedure: Jurkat T-cell leukemia cultured cells were washed once with Hanks Buffered Salt Solution (HBSS) containing calcium and resuspended in HBSS at a concentration of 2×10^6/ml. A one (1) mL cell suspension was added to a 12×75 mm test tube. A cell-permeant compound (7e or 7f) was added to the cell suspension at a final concentration of 4 μM. The cell/dye mixture was mixed and placed at 37° C. protected from light for 30 minutes. The sample then was washed once with HBSS pre-warmed to 37° C. and the cell pellet was resuspended in one mL warmed HBSS. The sample rested for 15 minutes at 37° C. protected from light. […] Analysis of the data was performed using a dual parameter plot of time versus fluorescence ratio of the emissions as measured by 495/20:424/44 ratio. […] A plot of time versus fluorescence ratio for cells that have been loaded with the tested compound was collected upon addition of ionomycin or CD3 stimulant after baseline measurement. […] For Compound 7e, the ratio of the mean fluorescence as measured yielded an increase of 3.4× with ionomycin stimulation (A), an expected response which was maintained over time. The ratio of the mean fluorescence as measured gave an increase of 2.8× with CD3 stimulation (B), an expected response which decreased slightly over time. […]
Compound,"λabs (UV), (nm) [1]",λemiss (nm) [1],λexcit (nm) [1],Kd [2] [nM],increase of ratio of mean fluorescence (495/20:424/44 emission ratio) after stimulant vs baseline ([3]; 1 μM ionomycin stimulation) [×],increase of ratio of mean fluorescence (495/20:424/44 emission ratio) after stimulant vs baseline ([3]; CD3 stimulation) [×]
Cc1ccc(N(CC(=O)O)CC(=O)O)c(OCCOc2cc3nc(-c4cc5c6c(c4)CCCN6CCC5)oc3cc2N(CC(=O)O)CC(=O)O)c1 [Compound 7h],375 nm,435-510 nm,375 nm,145,–,–
Cc1ccc(N(CC(=O)O)CC(=O)O)c(OCCOc2cc3nc(-c4ccc(N(C)C)cc4O)oc3cc2N(CC(=O)O)CC(=O)O)c1 [Compound 7g],363 nm,417-496 nm,363 nm,85,–,–
Cc1ccc(N(CC(=O)O)CC(=O)O)c(OCCOc2cc3nc(-c4cc5cc6c7c(c5oc4=O)CCCN7CCC6)oc3cc2N(CC(=O)O)CC(=O)O)c1 [Compound 7t],472 nm,520 nm,472 nm,156,–,–
Cc1ccc(N(CC(=O)O)CC(=O)O)c(OCCOc2cc3nc(-c4cc[n+]([O-])cc4)oc3cc2N(CC(=O)O)CC(=O)O)c1 [Compound 7k],357 nm,612 nm,356-425 nm,304,–,–
Cc1ccc(N(CC(=O)O)CC(=O)O)c(OCCOc2cc3nc(-c4ccc5cc(N(C)C)ccc5c4)oc3cc2N(CC(=O)O)CC(=O)O)c1 [Compound 7r],373 nm,496 nm,373 nm,129,–,–
Cc1ccc(N(CC(=O)O)CC(=O)O)c(OCCOc2cc3nc(-c4ccc5nonc5c4)oc3cc2N(CC(=O)O)CC(=O)O)c1 [Compound 7l],330 nm and 440 (non- nm,490 nm,324-364 nm,157,–,–
Cc1ccc(N(CC(=O)O)CC(=O)O)c(OCCOc2cc3nc(-c4cccc(=O)[nH]4)oc3cc2N(CC(=O)O)CC(=O)O)c1 [Compound 7j],366 nm,567 nm,349-392 nm,146,–,–
COc1cc(N(C)C)ccc1-c1nc2cc(OCCOc3cc(C)ccc3N(CC(=O)O)CC(=O)O)c(N(CC(=O)O)CC(=O)O)cc2o1 [Compound 7f],363 nm,417-475 nm,363 nm,103,3.2,2.8
Cc1ccc(N(CC(=O)O)CC(=O)O)c(OCCOc2cc3nc(-c4nc5ccccc5s4)oc3cc2N(CC(=O)O)CC(=O)O)c1 [Compound 7i],364 nm,569 nm,361-422 nm,309,–,–
Cc1ccc(N(CC(=O)O)CC(=O)O)c(OCCOc2cc3nc(/C=C/c4cc5c6c(c4)CCCN6CCC5)oc3cc2N(CC(=O)O)CC(=O)O)c1 [Compound 7q],413 nm,548 nm,413 nm,80,–,–
Cc1ccc(N(CC(=O)O)CC(=O)O)c(OCCOc2cc3nc(/C=C/c4ccc(N(C)C)c5ccccc45)oc3cc2N(CC(=O)O)CC(=O)O)c1 [Compound 7p],392 nm,586 nm,392 nm,290,–,–
